# Laboratory results reported in US20040157785A1, “Combination therapy comprising anti-diabetic and anticonvulsant agents” (priority 2000, published 2004).
# Like-named read-outs stand apart in the source and are kept apart here.
# How the values were obtained:
# [1] = tested on: markers of diabetes mellitus; test: Summary of the case studies: topiramate in combination with an anti-diabetic agent; format: in vivo, human; conditions: oral administration in combination with an anti-diabetic agent
# [2] = tested on: patient with elevated blood sugars; test: Case Study D: topiramate with Amaryl (glimepiride) in a patient with elevated blood sugars; format: in vivo, human
# Procedure: The ability of the compounds of formula I administered in combination with an anti-diabetic agent to treat Type II diabetes mellitus and Syndrome X is based on the following case studies. The patient was a person, with a history of elevated blood sugars and a weight of 188 lbs. At the time of initial treatment, patient's blood sugar was 426 mg/dl. Patient was started on topiramate, titrated to 100 mg once a day. The patient was also prescribed […] (glimepiride). After 3 months, patient's blood sugar averaged in the upper 100s, lab sugars measured at 138 mg/dl, cholesterol at 278 mg/dl, triglycerides at 212 mg/dl and HgbA1C at 6.7%. […] Patient weighed 160 lbs. Patient was able to stop taking the […] due to improved sugar control. Due to concerns about weight loss, topiramate was decreased to 100 mg/day. After 21 months, patient's weight was 170 lbs, blood sugars were reported doing well. Lab measured glucose was 115 mg/dl, cholesterol was measured at 236 mg/dl, triglycerides at 106 mg/dl and HgbA1C at 5.7%.
# [3] = tested on: patient with Type II diabetes; test: Case Study B: topiramate added to Glucotrol (glipizide) in a Type II diabetes patient; format: in vivo, human
# Procedure: The ability of the compounds of formula I administered in combination with an anti-diabetic agent to treat Type II diabetes mellitus and Syndrome X is based on the following case studies. The patient was a person with a 5 year history of Type II diabetes. At the start of treatment, patient was taking 40 mg/day Glucotrol (glipizide, a sulfonylurea) and weighed 293 lbs. The patient was titrated on topiramate to 50 mg/day. After 1 month of treatment, patient reported that home measured blood sugars had dropped from a baseline of 300 mg/dl to measured blood sugars of 140 mg/dl. After 2 months, the patient indicated average blood sugar levels of 80-140 mg/dl and weight loss to 272 lbs.
# [4] = tested on: simple and complex partial seizures and secondarily generalized seizures; conditions: adjunctive therapy or monotherapy; cited from earlier work
# patient with diabetes = test: Case Study C: topiramate added to Glucophage, DiaBeta and Rezulin in a diabetes patient; format: in vivo, human
# Procedure: The ability of the compounds of formula I administered in combination with an anti-diabetic agent to treat Type II diabetes mellitus and Syndrome X is based on the following case studies. The patient was a person with an 8 year history of diabetes. Prior to treatment, patient's weight was 201 lbs, Hgb A1C was 9.3% and blood sugar was 309 mg/dl. Patient was taking Glucophage (metformin hydrochloride) at four 500 mg tablets/day (2 tablets in the morning, 1 tablet in the afternoon and 1 tablett at night, for a total of 2000 mg/day), DiaBeta (glyburide) at 10 mg twice a day (total of 20 mg/day) and Rezulin (troglitazone) at 200 mg/day. Patient was started on topiramate at 75 mg b.i.d (150 mg/day). […] After 15 months patient's weight was 190 lbs with blood sugars controlled on 100 mg topiramate in the morning, 200 mg topiramate at night (Total of 300 mg/day), DiaBeta at 10 mg twice a day and Rezulin at 200 mg once a day.
# [5] = tested on: patient with Type II diabetes; test: Case Study A: topiramate added to insulin (70/30) in a Type II diabetes patient; format: in vivo, human
# Procedure: The ability of the compounds of formula I administered in combination with an anti-diabetic agent to treat Type II diabetes mellitus and Syndrome X is based on the following case studies. The patient was a person with a 6 year history of Type II diabetes. For the past four years the patient was being treated with insulin (70/30). At the start of treatment patient's weight was 236 lbs, measured cholesterol was 316 mg/dl and measured glucose was 166 mg/dl. The patient was started on Topiramate for treatment of seizures and titrated to 75 mg a day. […] After 16 months, patient's fasting glucose was 89 mg/dl.
# seizures [6] = conditions: animal model of kindled epilepsy; cited from earlier work
# seizures [7] = conditions: several rodent models of epilepsy; cited from earlier work
# [8] = after 3 months, topiramate 100 mg once a day with Amaryl
# [9] = after 3 months, topiramate 100 mg once a day with Amaryl, initial 426 mg/dl
# [10] = after 21 months, topiramate 100 mg/day, Amaryl stopped
# [11] = after one year, topiramate increased to 200 mg/day
smiles,measurement,setting,value
"CC1(C)O[C@@H]2[C@@H](CO[C@@]3(COS(N)(=O)=O)OC(C)(C)O[C@@H]23)O1 [topiramate, 2,3:4,5-bis-O-(1-methylethylidene)-β-D-fructopyranose sulfamate]","status of markers of diabetes mellitus (blood glucose, glycosylated hemoglobin, triglyceride levels)",[1],consistently improved
same,HgbA1C,[2]; [8],6.7%
same,cholesterol,[2]; [8],278 mg/dL
same,triglycerides,[2]; [8],212 mg/dL
same,blood sugar averaged,[2]; [9],upper 100s
same,lab sugars,[2]; [9],138 mg/dL
same,HgbA1C,[2]; [10],5.7%
same,blood sugars (reported),[2]; [10],doing well
same,cholesterol,[2]; [10],236 mg/dL
same,lab measured glucose,[2]; [10],115 mg/dL
same,patient's weight,[2]; [10],170 lbs
same,triglycerides,[2]; [10],106 mg/dL
same,need for Amaryl (sugar control),"[2]; after one year, topiramate 200 mg/day",able to stop taking the Amaryl
same,patient weight,"[2]; after one year, topiramate 200 mg/day, start 188 lbs",160 lbs
same,cholesterol,[2]; [11],200 mg/dL
same,lab measured blood sugars,[2]; [11],141 mg/dL
same,triglycerides,[2]; [11],500 mg/dL
same,home measured blood sugars,"[3]; after 1 month, topiramate 50 mg/day with Glucotrol 40 mg/day, baseline 300 mg/dl",140 mg/dL
same,average blood sugar levels,"[3]; after 2 months, topiramate 50 mg/day with Glucotrol 40 mg/day",80 to 140 mg/dL
same,weight,"[3]; after 2 months, topiramate 50 mg/day with Glucotrol, start 293 lbs",272 lbs
same,efficacy in treating simple and complex partial seizures and secondarily generalized seizures,[4],effective
same,patient's weight,"patient with diabetes; after 15 months, topiramate 300 mg/day with DiaBeta and Rezulin, prior 201 lbs",190 lbs
same,blood sugars,"patient with diabetes; after 15 months, topiramate 300 mg/day, DiaBeta 10 mg twice a day, Rezulin 200 mg once a day",controlled
same,blood sugars (patient indicated),"patient with diabetes; topiramate 75 mg b.i.d (150 mg/day) with Glucophage, DiaBeta, Rezulin, prior blood sugar 309 mg/dl",doing better
same,need for Glucophage (sugar control),patient with diabetes; topiramate 150 mg b.i.d (300 mg/day) with DiaBeta and Rezulin,able to stop Glucophage
same,blood sugar (patient indicated),"[5]; after 2 months, topiramate 75 mg a day with insulin (70/30), using the insulin less often",improved significantly
same,fasting glucose,"[5]; after 16 months, with insulin (70/30), glucose at start 166 mg/dl",89 mg/dL
same,home measured blood sugars,"[5]; after 18 months, with insulin (70/30), previously 150 to 160 mg/dl",less than 120 mg/dl
same,Hbg A1C,"[5]; after one year, topiramate 200 mg b.i.d. with insulin (70/30)",6.94%
same,patient's weight,"[5]; after one year, topiramate 200 mg b.i.d. with insulin (70/30), start 236 lbs",225 lbs
same,seizure block,seizures [6],effectively block seizures
same,seizure block,seizures [7],effectively block seizures
